Experimental data as given in US4269857A, “Control of plant-virus diseases” (Kureha Kagaku Kogyo Kabushiki Kaisha, priority 1978, dated 1981).
Like-named read-outs stand apart in the source and are kept apart here.

Tests used:
[1] = tested on: tobacco mosaic virus (TMV); test: Inhibition of local lesion formation by TMV, half-leaf method on kidney bean primary leaves; type: in vivo, tobacco mosaic virus on kidney bean plants (variety: Otebo); settings: for inhibition at 500 ppm: Tobacco mosaic virus, read-out: Evaluation (rate of inhibition of lesion spot formation)
Text: (§1) In the experiments one of the compounds of the present invention was formulated as in the above-mentioned Example 3 and after diluting the formulated composition with water to a predetermined concentration.
In this test, the inhibiting action of the compound of the present invention against the formation of local lesion due to the infection of tobacco mosaic virus (TMV) was examined by the half-leaf method using primary leaves of kedny been plants (variety: Otebo). TMV was inoculated on the primary leaf of kedney been plant, and just after the inoculation, the diluted liquid of the compound was painted on the half surface of the leaf and water was painted on the other half surface of the leaf. The concentration of the compounds of the present invention in the liquid was 500 ppm, and the inoculum was adjusted to form about 50 topical lesion spots on the half surface of the leaf painted with water (control). Ten leaves were usually used for the evaluation of one compound, and the rate of inhibition of lesion spot formation was derived from the following formula: [formula]
The thus obtained rates of inhibition were evaluated according to the following criteria: […]

[2] = tested on: cucumber mosaic virus (CMV); test: Inhibition of CMV disease transmitted by aphids (Myzus persicae) on cucumber plants; type: in vivo; settings: CMV via wingless aphids, 500 ppm, sprayed before aphid transmigration, one week after spray
Text: as §1, with “The followings are the test results of the compounds of the present invention in the plant virus disease-controlling experiments. In” for “In”
The compounds evaluated as A in Test results 2 were further tested as follows:
The cucumber plants growing for two weeks after sowing in greenhouse were sprayed by each liquid containing each compound at a concentration of 500 ppm (variety of cucumber: Kinseisanto). After drying at room temperature about 3 hours, wingless aphids (Myzus persicae, Sulzer) which had been put on the suffered cucumber plant from CMV and shipped the plant sap containing CMV were transmigrated to the sprayed cucumber plants at a rate of 5 insects per plant. On the next day of the transmigration, the insects were killed by spraying dichlorvos in the plants. After one week of the spray of the compound of the present invention, the effectiveness of the compound in inhibiting the occurrence of the sign of disease due to the virus was investigated as the number of plants without the sign of disease per number of plants sprayed. As the control, water was sprayed.

[3] = TMV, kidney bean primary leaves, 500 ppm, painted just after inoculation, half-leaf method

| SMILES | inhibition at 500 ppm [1, 3] [%] | Evaluation (number of plants without the sign of disease per number of plants sprayed) [2] | Evaluation (rate of inhibition of lesion spot formation) [1, 3] | also measured |
| --- | --- | --- | --- | --- |
| CCCCNC[C@H](O)[C@@H](O)[C@H](O)[C@H](O)CO [Compound 3] | – | – | – | inhibition at 500 ppm [1]: 70 to 90% |
| CCCCCNC[C@H](O)[C@@H](O)[C@H](O)[C@H](O)CO [Compound 5] | 70 to 90 | – | – | – |
| CCCCCCNC[C@H](O)[C@@H](O)[C@H](O)[C@H](O)CO [Compound 7] | 70 to 90 | – | – | – |
| CCCCCCCCNC[C@H](O)[C@@H](O)[C@H](O)[C@H](O)CO [Compound 8] | 70 to 90 | – | – | – |
| CCCCCCCCCCNC[C@H](O)[C@@H](O)[C@H](O)[C@H](O)CO [Compound 10] | 90 to 100 | B (7/10-5/10) | – | – |
| CCCCCCCCCCCCNC[C@H](O)[C@@H](O)[C@H](O)[C@H](O)CO [Compound 12] | 90 to 100 | A (10/10-8/10) | – | – |
| CCCCCCCCCCCCNC[C@H](O)[C@@H](O)[C@H](O)[C@H](O)CO [Compound 13] | – | A (10/10-8/10) | A (100-90) | – |
| CCCCCCCCCCCCNC[C@H](O)[C@@H](O)[C@H](O)[C@H](O)CO [Compound 14] | – | B (7/10-5/10) | A (100-90) | – |
| CCCCCCCCCCCCNC[C@H](O)[C@@H](O)[C@H](O)[C@H](O)CO [Compound 15] | – | A (10/10-8/10) | A (100-90) | – |
| CCCCCCCCCCCCNC[C@H](O)[C@@H](O)[C@H](O)[C@H](O)CO [Compound 16] | – | A (10/10-8/10) | A (100-90) | – |
| CCCCCCCCCCCCNC[C@H](O)[C@@H](O)[C@H](O)[C@H](O)CO [Compound 17] | – | – | B (90-70) | – |
| CCCCCCCCCCCCCCNC[C@H](O)[C@@H](O)[C@H](O)[C@H](O)CO [Compound 18] | 70 to 90 | – | – | – |
| CCCCCCCCCCCCCCCNC[C@H](O)[C@@H](O)[C@H](O)[C@H](O)CO [Compound 20] | 70 to 90 | – | – | – |
| CCCCCCCCCCCCCCCCNC[C@H](O)[C@@H](O)[C@H](O)[C@H](O)CO [Compound 23] | 70 to 90 | – | – | – |
| CCCCCCCCCCCCCCCCCCNC[C@H](O)[C@@H](O)[C@H](O)[C@H](O)CO [Compound 24, 1-deoxy-1-n-octadecylamino-D-glucitol] | 90 to 100 | A (10/10-8/10) | – | – |
| CCCCCCCCCCNC[C@@H](O)[C@@H](O)[C@H](O)[C@H](O)CO [Compound 26] | 90 to 100 | B (7/10-5/10) | – | – |
| CCCCCCCCCCNC[C@@H](O)[C@@H](O)[C@H](O)[C@H](O)CO [Compound 27] | – | B (7/10-5/10) | – | – |
| CCCCCCCCCCCCNC[C@@H](O)[C@@H](O)[C@H](O)[C@H](O)CO [Compound 28] | 90 to 100 | – | – | – |
| CCCCCCCCCCCCNC[C@@H](O)[C@@H](O)[C@H](O)[C@H](O)CO.Cl [Compound 29, 1-deoxy-1-n-dodecylamino-D-mannitol hydrochloride] | – | B (7/10-5/10) | A (100-90) | – |
| CCCCCCCCCCCCNC[C@@H](O)[C@@H](O)[C@H](O)[C@H](O)CO [Compound 30] | – | – | B (90-70) | – |
| CCCCCCCCCCCCNC[C@@H](O)[C@@H](O)[C@H](O)[C@H](O)CO [Compound 31] | – | – | A (100-90) | – |
| CCCCCCCCCCCCNC[C@@H](O)[C@@H](O)[C@H](O)[C@H](O)CO [Compound 32] | – | – | A (100-90) | – |
| CCCCCCCCCCCCCCNC[C@@H](O)[C@@H](O)[C@H](O)[C@H](O)CO [Compound 33] | 70 to 90 | – | – | – |
| CCCCCCCCCCCCNC[C@H](O)[C@@H](O)[C@@H](O)[C@H](O)CO [Compound 35] | 70 to 90 | – | – | – |
| CCCCCCCCCCCCNC[C@H](O)[C@@H](O)[C@@H](O)[C@H](O)CO [Compound 36] | – | – | B (90-70) | – |

| SMILES | inhibition at 500 ppm [1, 3] [%] | Evaluation (number of plants without the sign of disease per number of plants sprayed) [2] | Evaluation (rate of inhibition of lesion spot formation) [1, 3] | also measured |
| --- | --- | --- | --- | --- |
| CCCCCCCCCCCCNC[C@H](O)[C@@H](O)[C@@H](O)[C@H](O)CO [Compound 37] | – | – | B (90-70) | – |
| CCCCCCCCCCCCNC[C@H](O)[C@H](O)[C@@H](O)[C@H](C)O [Compound 38] | 70 to 90 | – | – | – |
| CCCCCCCCCCCCNCC[C@@H](O)[C@H](O)[C@H](O)CO [Compound 41] | 90 to 100 | – | – | – |
| CCCCCCCCCCCCNCC[C@@H](O)[C@H](O)[C@H](O)CO [Compound 42] | – | – | B (90-70) | – |
| CCCCCCCCCCNC[C@H](O)[C@H](O)[C@H](O)CO [Compound 43] | 90 to 100 | – | – | – |
| CCCCCCCCCCCCNC[C@H](O)[C@H](O)[C@H](O)CO [Compound 44] | – | – | B (90-70) | – |
| CCCCCCCCCCCCNC[C@H](O)[C@H](O)[C@H](O)CO [Compound 45] | 70 to 90 | – | – | – |
| CCCCCCCCCCCCNC[C@H](O)[C@H](O)[C@H](O)CO [Compound 46] | – | – | A (100-90) | – |
| CCCCCCCCCCCCNC[C@H](O)[C@H](O)[C@H](O)CO [Compound 47] | – | – | A (100-90) | – |
| CCCCCCCCCCCCNC[C@H](O)[C@H](O)[C@H](O)CO [Compound 48] | – | A (10/10-8/10) | A (100-90) | – |
| CCCCCCCCCCCCCCNC[C@H](O)[C@H](O)[C@H](O)CO [Compound 49] | 90 to 100 | A (10/10-8/10) | – | – |
| CCCCCCCCCCNC[C@H](O)[C@@H](O)[C@H](O)CO [Compound 50] | 70 to 90 | – | – | – |
| CCCCCCCCCCNC[C@H](O)[C@@H](O)[C@H](O)CO [Compound 51] | – | – | A (100-90) | – |
| CCCCCCCCCCCCNC[C@H](O)[C@@H](O)[C@H](O)CO [Compound 52] | 90 to 100 | A (10/10-8/10) | – | – |
| CCCCCCCCCCCCCCNC[C@H](O)[C@@H](O)[C@H](O)CO [Compound 53] | 90 to 100 | A (10/10-8/10) | – | – |
| CCCCCCCCCCCCCCNC[C@H](O)[C@@H](O)[C@H](O)CO [Compound 54] | – | – | A (100-90) | – |
| CCCCCCCCCCCCNCC[C@H](O)[C@H](O)CO [Compound 55] | 90 to 100 | A (10/10-8/10) | – | – |
| CCCCCCCCCCCCCCCCCCNC[C@H](O)[C@@H](O)[C@H](O[C@H]1O[C@H](CO)[C@@H](O)[C@H](O)[C@H]1O)[C@H](O)CO [Compound 56] | 90 to 100 | – | – | – |
| CCCCCCCCCCCCCCCCCCNC[C@H](O)[C@@H](O)[C@H](O[C@H]1O[C@H](CO)[C@@H](O)[C@H](O)[C@H]1O)[C@H](O)CO [Compound 57] | – | – | B (90-70) | – |
| CCCCCCCCCCCCNC[C@H](O)[C@@H](O)[C@H](O[C@@H]1O[C@H](CO)[C@H](O)[C@H](O)[C@H]1O)[C@H](O)CO [Compound 58] | 90 to 100 | B (7/10-5/10) | – | – |
| CCCCCCCCCCCCCCCCCCNC[C@H](O)[C@@H](O)[C@H](O[C@@H]1O[C@H](CO)[C@H](O)[C@H](O)[C@H]1O)[C@H](O)CO [Compound 59] | 90 to 100 | – | – | – |
| CCCCCCCCCCCCCCCCCCNC[C@H](O)[C@@H](O)[C@H](O[C@@H]1O[C@H](CO)[C@H](O)[C@H](O)[C@H]1O)[C@H](O)CO [Compound 60] | – | – | B (90-70) | – |
| CCCCCCCCCCCCNC[C@H](O)[C@@H](O)[C@H](O[C@@H]1O[C@H](CO)[C@@H](O)[C@H](O)[C@H]1O)[C@H](O)CO [Compound 61] | 90 to 100 | B (7/10-5/10) | – | – |
| CCCCCCCCCCCCCCCCCCNC[C@H](O)[C@@H](O)[C@H](O[C@@H]1O[C@H](CO)[C@@H](O)[C@H](O)[C@H]1O)[C@H](O)CO [Compound 62] | 70 to 90 | – | – | – |
| CCCCCCCCCCCCCCCCCCNC[C@H](O)[C@@H](O)[C@H](O[C@@H]1O[C@H](CO)[C@@H](O)[C@H](O)[C@H]1O)[C@H](O)CO [Compound 63] | – | – | B (90-70) | – |
